Source: US20250025440A1, “COMPOSITIONS AND METHODS FOR MANAGEMENT OF HUMAN PAPILLOMA VIRUS-ASSOCIATED CANCERS” (LOMA LINDA UNIVERSITY, priority 2021, published 2025)

Tests used:
[1] = biological target: T1, full-length HPV E6 binding to human Caspase 8 (Human papillomavirus type 16, UniProt P03126); settings: SAR analogs
T1 construct: made in house; host or cells: E. coli
Method: Three structurally diverse libraries (Prestwick library, Microsource Spectrum library and an in-house collection at Kansas University; see Table 1) were screened for the ability of compounds to inhibit the binding of full-length HPV E6 to human Caspase 8 using a previously optimized AlphaScreen™ protocol.
The compounds were diluted to a working concentration in DMSO and screened at a single-point final concentration of 10 μM with no replicates. Briefly, 75 nL of each compound was transferred and added to wells of the destination 384-well plate using the Echo dispenser to 4 μL of blocking solution. 4 μL of 800 nM GST-E6 and 4 μL of His6-Caspase 8 were added and pre-incubated at room temperature for 60 minutes. 8 μL of the donor and acceptor bead mixture (final concentration of 20 μg/ml) was then added. The plates were sealed and incubated for 4 hours at room temperature before the plates were read using the Envision™ Multi-Label plate reader (Perkin Elmer Inc.). […] A 10-point serial dilution of these compounds was done for dose-dependency reconfirmation. Dose response inhibition curves were constructed and IC50 calculated using GraphPad Prism using four parameter non-linear regression analysis.
The first counter-screen assay was based using the GST-His6 fusion peptide as the E6-binding partner instead of GST-E6-His6-Caspase 8. Hit candidate compounds from the primary screen were prepared using a 6-point serial dilution. Using an Echo dispenser, compounds were transferred to plates containing 4 μL of blocking buffer. 8 μL of 5 nM GST-His6 peptide substrate was then added. The mixture was pre-incubated at room temperature for 60 minutes. Glutathione donor and nickel chelate acceptor beads (final concentration 20 μg/mL) were added and incubated for another 60 minutes at room temperature. Dose-dependency of the compounds using GST-E6-His6-Caspase 8 was performed in parallel using the same protocol as in the primary screen. The signals were then read using the Envision™ plate reader.
(§1) Using the SciFinder and Zinc15 databases, several gambogic acid structural analogs were identified and selected. The 8 analogs were obtained as follow: gambogenic amide (Enzo Life Sciences), gambogenic acid (Selleckchem), morellic acid (Aobious), 30-hydroxy gambogic acid (Quality Phytochemicals, LLC), acetyl gambogic acid (Microsource), and gambogin, neogambogic acid and isomorellinol (MolPort Natural Products). Additional gambogic acid was purchased from Tocris. The interactions of the analogues with E6-caspase 8 was tested using AlphaScreen™ technology using the same protocol as with the primary screen, and were compared to the parent compound. The effect on cell viability was also similarly done in HPV^+ and HPV^− cell lines via the MTT assay (see below) and potency was determined using GraphPad IC50 curve fitting.

[2] = test system: SCC104 (HPV+ HNSCC cell line); assay: MTT cell viability of gambogic acid analogs; assay type: cell-based; settings: SCC104, 24 hr
Method: Next, the analogs were evaluated for functional activity using the HPV^+ HNSCC cell line, SCC104, in the MTT assay as described previously to determine whether similar findings would be observed as in the in vitro AlphaScreen™ analysis. With one exception, the patterns were similar to the AlphaScreen™ data, but the differences were relatively more pronounced in the cell-based screen (FIG. 6B). […] Based on these findings, 30-hydroxygambogic acid (GA-OH) was selected as a candidate for more extensive functional studies.
as §1
All working concentrations were diluted in PBS to the desired concentration before use. To test the effect of gambogic acid and/or its derivatives on cell viability, all cell lines were seeded at 2×10^4 per well in 96-well plates and allowed to adhere overnight. Various concentrations of the analogues were added and the cells incubated at 37° C. for 24 hr. Viability was then measured using the MTT assay, performed as described previously. All experiments were repeated at least three times (three biological replicates, carried out on different days). Data presented are from a representative experiment. Cell viability and potency were assessed from % inhibition relative to the vehicle control, and IC50 dose curves were generated using GraphPad Prism.

[3] = test system: SCC104 (HPV+); assay: Colony formation assay; assay type: cell-based; settings: SCC104, treated 24 hours
Method: (§2) For assessing the long-term effects on the survival of cells following GA-OH treatment, the colony formation assay (CFA) was performed. Two cell lines, SCC19 (HPV^−) and SCC104 (HPV^+) were used for this study. The cells were treated for 24 hours with GA-OH, and then seeded for assessment of colony formation. Cell survival data from this study mirrored the impact of GA-OH on cell viability of HPV^+ and HPV^− cell lines. […] FIG. 7C is a graphical representation of the effects of GA-OH on the clonogenicity of the surviving fractions of HPV^+ versus HPV^− cell lines.
(§3) Sub-confluent monolayer cells were treated with different doses of GA-OH for 24 hours. Cells were trypsinized and re-suspended before re-plating into 6 well plates in DMEM or MEM at 500-1000 cell densities, depending on the cell line. Cells were then allowed to grow for 10-20 days, depending on the cell line, before fixing and staining. A mixture of methanol/acetic acid was used for fixing, followed by 0.5% crystal violet staining. Plates were imaged using UV imager, and colonies with more than […] counted using image J. Surviving fractions were determined by dividing the number of colonies by the number of cells seeded as a product of the corresponding plating efficiency. Survival fractions curves were plotted using GraphPad Prism.

[4] = test system: SCC19 (HPV-); assay: Colony formation assay; assay type: cell-based; settings: SCC19, treated 24 hours
Method: as §2, §3

[5] = test system: SCC47 and SCC19; assay: Apoptosis analysis after irradiation (flow cytometry); assay type: cell-based
Method: Kinetics of G2-M arrest when SCC47 and SCC19 are irradiated with or without GA-OH. Cells were treated with radiation (4Gy) followed by GA-OH before cell cycle analysis was performed using […] flow cytometry assay after 24 hours. FIGS. 17A-17B are graphical representations of the kinetics of G2-M arrest when SCC47 and SCC19 are irradiated and followed by treatment with control or with GA-OH, as measured by flow cytometry assays after 24 hours. Cells are arrested to the same extent in the short term (first 12 hours) but over extended periods, SCC19 cells exit the G2-M stage quicker. In the HPV^+ but not HPV^− line, the addition of GA-OH to the radiation protocol delays the exit from the exit the G2-M stage at 24 hours as compared to radiation alone. Apoptosis analysis of SCC47 and SCC19 was performed after irradiation and followed by treatment with control or with GA-OH, as measured by flow cytometry assays after 24 hours. FIGS. 18A-18B are graphical representations of the apoptotic analysis of SCC47 and SCC19 after irradiation with or without GA-OH after 24 hours, as measured by flow cytometry assays. Radiation induces minimal apoptosis on its own.

T1 sequence (P03126 whole entry): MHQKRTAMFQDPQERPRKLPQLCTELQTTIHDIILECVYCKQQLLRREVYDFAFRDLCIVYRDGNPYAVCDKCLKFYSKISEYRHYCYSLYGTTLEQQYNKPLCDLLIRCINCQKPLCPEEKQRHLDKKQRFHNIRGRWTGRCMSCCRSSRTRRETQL

## 30-hydroxygambogic acid [GA-OH]
[1]
  inhibition of E6-caspase 8 binding relative to GA: more effectively inhibited E6 binding to caspase 8 than any of the other analogs or the parent compound
[2]
  potency in MTT assay: highest potency of all analogs
[3]
  number of colonies: significantly and dose-dependently reduced
[4]
  number of colonies: did not exhibit significant reduction relative to their control except at high concentrations
[5]; 24 hours
  apoptosis, agent alone: appreciable apoptosis
[5]; SCC47 compared to SCC19, 24 hours
  apoptosis, combination with radiation: greater apoptosis and at a greater rate
